According to ChEMBL document CHEMBL4130407, “A novel class of thiosemicarbazones show multi-functional activity for the treatment of Alzheimer's disease” (Eur J Med Chem, 2017):
The source made the active and inactive calls. No cut-off for these calls is given here.

Experiments:
SK-N-MC [1] = assay: cells; conditions: Homo sapiens, read-out: Activity
Description: (§1) Neuroprotective activity against H2O2-induced cell death in human SK-N-MC cells assessed as cell viability at 10 uM preincubated for 2 hrs followed by H2O2 addition and measured after 24 hrs by MTT assay

SK-N-MC [2] = assay: cells; assay type: ADME, cell-based; conditions: Homo sapiens, 72 h
Description: Antiproliferative activity against human SK-N-MC cells after 72 hrs by MTT assay

SK-N-MC [3] = assay: Induction of autophagy in human SK-N-MC cells assessed as increase in LC3 accumulation at 25 uM after 24 hrs in presence of autophagy inhibitor Baf1 by Western blot analysis; assay type: functional, cell-based
SK-N-MC [4] = assay: Induction of autophagy in human SK-N-MC cells assessed as decrease in p62 level at 25 uM after 24 hrs by Western blot analysis; assay type: functional, cell-based
[5] = Metal chelation activity assessed as 1:2 Fe3+:L complex formation in DMF:H2O (7:3) solution by cyclic voltametry
[6] = Metal chelation activity assessed as 1:1 compound to Cu2+L complex formation in DMF:H2O (7:3) solution by cyclic voltametry
[7] = Metal chelation activity assessed as 1:1 compound to Cu2+L2 complex formation in DMF:H2O (7:3) solution by EPR spectrscopy
SK-N-MC [8] = conditions: Homo sapiens, 10 uM
Description: as §1

[9] = Metal chelation activity assessed as 1:1 compound to Cu2+L complex formation in DMF:H2O (7:3) solution by EPR spectrscopy
SK-N-MC [10] = assay: Binding affinity to 59Fe2+ in human SK-N-MC cells labeled with 59Fe2-transferrin assessed as Fe release at 25 uM after 3 hrs by gamma scintillation counting method relative to DFO; assay type: cell-based
Acetylcholinesterase = Acetylcholinesterase (Electrophorus electricus, UniProt O42275); assay: Inhibition of electric eel AChE using acetylthiocholine iodide as substrate preincubated for 15 mins followed by substrate addition measured for 5 mins by UV spectrophotometric analysis
Sequence of Acetylcholinesterase (O42275 whole entry): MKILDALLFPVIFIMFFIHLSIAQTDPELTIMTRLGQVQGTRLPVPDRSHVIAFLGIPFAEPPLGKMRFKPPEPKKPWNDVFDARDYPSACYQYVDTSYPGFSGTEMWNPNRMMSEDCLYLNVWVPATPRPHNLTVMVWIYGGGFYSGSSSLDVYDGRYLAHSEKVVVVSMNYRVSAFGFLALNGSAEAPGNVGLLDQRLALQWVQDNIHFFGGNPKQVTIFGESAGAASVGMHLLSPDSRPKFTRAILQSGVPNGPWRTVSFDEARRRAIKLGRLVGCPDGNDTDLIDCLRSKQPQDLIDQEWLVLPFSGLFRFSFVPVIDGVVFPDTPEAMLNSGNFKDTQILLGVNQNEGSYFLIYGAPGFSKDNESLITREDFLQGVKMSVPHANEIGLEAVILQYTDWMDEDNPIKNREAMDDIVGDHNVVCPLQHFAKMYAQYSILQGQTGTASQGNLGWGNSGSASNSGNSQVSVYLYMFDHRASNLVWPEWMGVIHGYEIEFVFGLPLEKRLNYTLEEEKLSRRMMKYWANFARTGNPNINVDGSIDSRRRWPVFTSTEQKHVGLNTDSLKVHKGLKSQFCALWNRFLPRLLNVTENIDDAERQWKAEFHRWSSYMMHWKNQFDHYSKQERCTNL

[11] = Metal chelation activity assessed as 1:2 Fe3+:L complex formation in DMF:H2O (7:3) solution by EPR spectrscopy
SK-N-MC [12] = assay: Induction of autophagy in human SK-N-MC cells assessed as increase in LC3 accumulation at 25 uM after 24 hrs in absence of autophagy inhibitor Baf1 by Western blot analysis; assay type: functional, cell-based
[13] = Metal chelation activity assessed as 1:2 Fe2+:L complex formation in DMF:H2O (7:3) solution by EPR spectrscopy

Compound	viability at 10 µM (SK-N-MC [1])	IC50 (SK-N-MC [2])	Activity (SK-N-MC [3])	Activity (SK-N-MC [4])	Activity [5]	Activity [6]	Activity [7]	Activity (SK-N-MC [8])	Activity [9]	Activity (SK-N-MC [10])	IC50 (Acetylcholinesterase)	Activity [11]	Activity (SK-N-MC [12])	Activity [13]
CC(=O)N(O)CCCCCNC(=O)CCC(=O)N(O)CCCCCNC(=O)CCC(=O)N(O)CCCCCN [DEFEROXAMINE]	89%	16.8 µM	–	–	–	–	–	–	–	–	–	–	–	–
CN(C)C(=S)NN=C(c1ccccn1)c1ccccn1	–	0.013 µM	Active	Active	–	–	–	–	–	–	–	–	–	–
Oc1ccc2ccccc2c1/C=N/NC(=S)NC1CCN(Cc2ccccc2)CC1	–	8.86 µM	inactive	Active	Active	Active	inactive	inactive	Active	16%	1.23 µM	Active	Active	–
Oc1ccccc1/C=N/NC(=S)NC1CCN(Cc2ccccc2)CC1	66 to 87%	34.4 µM	inactive	Active	Active	Active	inactive	–	Active	28%	1.02 to 22.6 µM	Active	–	–
Oc1ccc(/C=N/NC(=S)NC2CCN(Cc3ccccc3)CC2)c(O)c1O	66 to 87%	79.1 µM	Active	inactive	–	–	–	–	Active	14%	1.02 to 22.6 µM	–	–	Active
S=C(N/N=C/c1ccc2ccccc2n1)NC1CCN(Cc2ccccc2)CC1	66 to 87%	17.7 µM	inactive	inactive	Active	Active	–	–	Active	–	1.02 to 22.6 µM	Active	–	–
Oc1cccc(/C=N/NC(=S)NC2CCN(Cc3ccccc3)CC2)c1O	66 to 87%	16.9 µM	inactive	inactive	–	–	–	–	Active	29%	1.02 µM	–	Active	–
Cc1ncc(CO)c(/C=N/NC(=S)NC2CCN(Cc3ccccc3)CC2)c1O	66 to 87%	> 100 µM	Active	inactive	Active	Active	inactive	–	Active	31%	4.93 µM	Active	–	–
Oc1cccc2ccc(/C=N/NC(=S)NC3CCN(Cc4ccccc4)CC3)nc12	66 to 87%	36.1 µM	Active	inactive	Active	Active	–	–	Active	17%	1.02 to 22.6 µM	–	Active	–
S=C(N/N=C/c1ccccn1)NC1CCN(Cc2ccccc2)CC1	66 to 87%	4.23 µM	Active	inactive	Active	Active	–	–	Active	18%	1.02 to 22.6 µM	Active	–	–
COc1cc2c(cc1OC)C(=O)C(CC1CCN(Cc3ccccc3)CC1)C2 (stereo unspecified) [DONEPEZIL]	74%	> 100 µM	–	–	–	–	–	–	–	–	–	–	–	–
